The values that follow come from patent US20120252773A1, “Method and composition for inhibiting cell proliferation and angiogenesis” (priority 2005, published 2012).

Molecules are shown by their SMILES.

Assay [1] has as its system granulation tissue in fibrin Z-chambers. In words: In vivo fibrin-Z chamber assay, wound healing and microvessel density. Particulars: rat. The protocol:
An in vivo fibrin-Z chamber assay (K. Amin et al., Cancer Biol. Ther. 2:173-178, (2003) was run to analyze wound healing and microvessel density. Plasminogen-free fibrinogen and thrombin were added to a sterile dual porous chamber through a port. To implant the chambers into rats, the animals were anesthetized with 35 mg/kg of sodium pentobarbital. Two incisions approximately 2 cm in length each were made on the dorsum, one over the mid vertebral and the other over the lower vertebral regions. Pockets were made in the subcutaneous fascia lateral to the incisions using blunt end scissors, and the chambers were placed deep into the pockets. The incision wounds were closed with an autoclip stapling device. Triple antibiotic ointment was applied to the incision area to prevent infection. At 24 h after the implantation, rats began to receive a single daily oral dose of (2) at 0, 3, or 30 mg/kg for 12 days. At the end of 12th day, animals were sacrificed. The chambers were harvested, fixed in 10% formalin overnight, and embedded in paraffin for histological analysis. To determine the effect of (2) on wound healing response, granulation tissue (GT) thickness was measured in microns on H&E-stained cross sections of fibrin Z-chambers using the Zeiss Axioskop II equipped with digital camera (Axiocam) and digital imaging software KS 300. To measure the effect of (2) on microvessel density, immunohistochemistry was performed on 4 μm thick paraffin-embedded sections. The sections were deparaffinized in Hemo-D, rehydrated in graded alcohols, subjected to endogenous peroxidase block in 3% H2O2, boiled in 10% citrate buffer for antigen retrieval, blocked with 5% donkey serum, and placed overnight at 4° C. with primary […] monoclonal antibody at 1:20 dilution. […] Images of three hot spots (×200 fields showing maximal vessel density) were captured from each section and the blood vessels counted using the Zeiss interactive digital imaging software KS300. A total of 15 high-power fields (HPFs, 40×) were counted for vessel density for each group.

Assay [2] deals with mouse transformed fibroblast cell line (L929). In words: Cell growth inhibition, MTT, 7 days, L929. Type of assay: cell-based. Particulars: L929, 7 days, compared with human cancer cell lines. As for the experimental part: To measure the inhibitory activity of (2) on growth of HDMVEC cells (Clonetics, San Diego, Calif.), 2,000 cells were seeded in each well of a 96-well plate in […] of EGM medium (Clonetics) supplemented with 5% fetal bovine serum (Sigma). The plate was incubated at 37° C. in a tissue culture incubator for 24 h, and then various concentrations of (2) dissolved in EGM were added to each well in 5-10 μl aliquots. Four wells were used for each concentration. Medium in each well was renewed with fresh test solution added every other day. After 7 days of culture, the viable cells were measured using reagents from an MTT kit (Promega Corporation, Madison, Wis.), using instructions provided by the supplier. The number of viable cells in treated wells relative to those in control wells gave the percentage of inhibition.
Compound (2) was evaluated in several different human cancer cell lines for its effects on cell growth. The human cancer cell lines used (ATCC) were A549 lung cancer cells, U-87 brain cancer cells, SKOV-3 ovarian cancer cells, PC-3 non-androgen dependent prostate cancer cells, and MDA MB-231 estrogen-independent breast cancer cells. Human umbilical vein endothelial cells (HUVEC) and a mouse transformed fibroblast cell line (L929) were also included in the assay for comparison. […]

The subject of assay [3] is Stat-3 (pStat-3, Tyr705). As to the kind of experiment: Stat-3 phosphorylation, Western blot, DU-145 cells. It is filed as cell-based, human. The note with it: DU-145, 0.5 μM, 48 h. The protocol:
Stat-3 is, therefore, an important molecular target for developing anti-cancer agents. DU-145 cells were treated with 0 (control), 100, or 500 nM of (2) for 48 hours. Western blot analysis was performed using total and phospho-Stat-3 (pStat-3, Tyr705) antibodies from Cell Signal Technology, Inc.
(In general: A western blot detects proteins with antibodies after separation by electrophoresis.)

Assay [4] deals with A549 human non small cell lung cancer tumors. As to the kind of experiment: A549 NSCLC nude mouse xenograft model, tumor growth. The note with it: 30 days. Type of assay: in vivo. The protocol: The xenograft model was conducted using 8 weeks old female athymic nude mice supplied by Charles River Laboratories. After 4 days of quarantine, A549 human non small cell lung cancer cells (3×10^6 cells/mouse) were subcutaneously implanted in the right flanks of mice in a 100 μl of Matrigel/phosphate buffered saline mixture (1:1). Animals were observed daily for tumor growth. When tumors became palpable, we began to measure the tumors using the formula V=W×L×H×π/6, where W and L represent the shorter and longer diameters of the tumor, H the height of the tumor. When tumor volumes reached approximately 50 mm^3, animals were randomized into control and treatment groups of 10 mice each based on tumor volumes. Only the mice with tumor volumes closest to the mean value were used. On the day of randomization, animals began to receive drug treatment. Compound (2) and Tarceva (Erlotinib) were orally dosed via gavage once daily. Cisplatin and Paclitaxel were dosed via intraperitoneal injection once weekly.
After initiation of drug treatment, tumor volumes were measured twice weekly and body weights once weekly. The study was carried out for 30 days and unscheduled sacrifices were performed on animals with tumor volumes greater than 1500 mm^3 or tumors developing ulceration or loss of 20% of their original body weights. […]

In the case of `C[C@@H]1Cc2cc(O)ccc2C2CCC3(C)/C(=C/COCCN(C)C)CCC3C21` (stereo partly drawn) [Compound (2), (E)-3-Hydroxy-7α-methyl-21-[(2-dimethylamino)ethoxy]-19-norpregna-1,3,5(10),17(20)-tetraene], the figures for the “decrease in granulation tissue thickness” value in assay [1] (3 mg/kg oral once daily for 12 days) and in assay [1] (30 mg/kg oral once daily for 12 days) were “about 20%” and “more than 35%”, respectively. Besides, in assay [1] (oral once daily for 12 days, dose not stated), the “decrease in microvessel formation as compared to the control” value is given as 30%. For the same compound, the “effect on growth of L929 mouse fibroblast cells” value in assay [2] was “much less”. Besides, in assay [3], the “reduction of tyrosine phosphorylation of Stat-3” value is listed as 52%. The “growth rate of A549 tumors” value in assay [4] (10 mg/kg oral once daily) and in assay [4] (20 mg/kg oral once daily) was “drastically reduced the growth rate” each time.
